In patent US9079895B2, “Morpholino compounds, uses and methods” (University of Dundee, priority 2012, dated 2015):
Counter-ions that a name gives are not always drawn.

Tests used:
[1] = target: 5HT1a receptor (Homo sapiens (Human), UniProt P08908); experiment: Secondary radioligand binding assay, 5HT1a; details: average of at least two experiments
[2] = target: 5HT2a receptor (Homo sapiens (Human), UniProt P28223); experiment: Secondary radioligand binding assay, 5HT2a; details: average of at least two experiments
[3] = target: dopamine D4 receptor (Homo sapiens (Human), UniProt P21917); experiment: Secondary radioligand binding assay, D4; details: receptor binding; average of at least two experiments; read-out: Ki D4
Experimental: 1. Secondary Radioligand Binding Assays
The detailed experimental protocols for the radioligand and functional receptor assays are available on the NIMH PDSP website at http://pdsp.med.unc.edu/UNC-CH %20Protocol %20Book.pdf.
Radioligand is diluted to five times the assay concentration (see Table 18) in Standard Binding Buffer. Typically, the assay concentration of radioligand is a value between one half the KD and the KD of a particular radioligand at its target. 50 μl aliquots of radioligand are dispensed into the wells of a 96-well plate containing 100 μl of Standard Binding Buffer. Then, duplicate 50 μl aliquots of the test and reference compound dilutions are added.
The 250 μl reactions are incubated at room temperature and shielded from light (to prevent photolysis of light-sensitive ligands) for 1.5 hours, then harvested by rapid filtration onto Whatman GF/B glass fiber filters pre-soaked with 0.3% polyethyleneimine using a 96-well Brandel harverster. Four rapid 500 μl washes are performed with chilled Standard Binding Buffer to reduce non-specific binding. Filters are placed in 6 ml scintillation tubes and allowed to dry overnight. The next day, 4 ml of EcoScint scintillation cocktail (National Diagnostics) are added to each tube. The tubes are capped, labeled, and counted by liquid scintillation counting. […] The filter mats are dried, then scintillant is melted onto the filters and the radioactivity retained on the filters is counted in a Microbeta scintillation counter.
Raw data (dpm) representing total radioligand binding (i.e. specific+non-specific binding) are plotted as a function of the logarithm of the molar concentration of the competitor (i.e. test or reference compound).
B. Dopamine Receptors: D1, D2, D3, D4, D5 Assay Buffers: Dopamine Binding Buffer (50 mM NaCl, 50 mM HEPES-HCl, 5 mM MgCl2, 0.5 mM EDTA, pH 7.4) Membrane Fraction Source: Transiently or stably transfected cell lines (e.g. HEK293, COS, CHO, NIH3T3)
The method is carried out in the manner described for the serotonin receptor assay above. Eleven dilutions (5× assay concentration) of the test and reference (see Table 19) compounds are prepared in Dopamine Binding Buffer by serial dilution, as previously described. Radioligand is diluted to five times the assay concentration (see Table 20) in Dopamine Binding Buffer.

[4] = target: 5HT2c receptor (Homo sapiens (Human), UniProt P28335); experiment: Secondary radioligand binding assay, 5HT2c; details: average of at least two experiments
Chain of 5HT2c receptor (P28335 33-458): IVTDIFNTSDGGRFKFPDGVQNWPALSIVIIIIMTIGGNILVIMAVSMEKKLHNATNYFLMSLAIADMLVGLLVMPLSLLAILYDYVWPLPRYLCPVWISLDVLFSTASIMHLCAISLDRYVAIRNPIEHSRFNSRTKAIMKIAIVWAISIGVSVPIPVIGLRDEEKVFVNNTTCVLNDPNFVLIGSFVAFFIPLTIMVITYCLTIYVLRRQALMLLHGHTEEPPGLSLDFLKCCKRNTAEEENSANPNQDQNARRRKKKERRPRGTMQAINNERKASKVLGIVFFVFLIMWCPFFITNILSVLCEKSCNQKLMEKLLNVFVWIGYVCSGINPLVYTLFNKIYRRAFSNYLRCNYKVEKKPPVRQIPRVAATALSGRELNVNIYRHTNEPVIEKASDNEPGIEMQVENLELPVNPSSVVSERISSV

Chain of 5HT2a receptor (P28223 whole entry): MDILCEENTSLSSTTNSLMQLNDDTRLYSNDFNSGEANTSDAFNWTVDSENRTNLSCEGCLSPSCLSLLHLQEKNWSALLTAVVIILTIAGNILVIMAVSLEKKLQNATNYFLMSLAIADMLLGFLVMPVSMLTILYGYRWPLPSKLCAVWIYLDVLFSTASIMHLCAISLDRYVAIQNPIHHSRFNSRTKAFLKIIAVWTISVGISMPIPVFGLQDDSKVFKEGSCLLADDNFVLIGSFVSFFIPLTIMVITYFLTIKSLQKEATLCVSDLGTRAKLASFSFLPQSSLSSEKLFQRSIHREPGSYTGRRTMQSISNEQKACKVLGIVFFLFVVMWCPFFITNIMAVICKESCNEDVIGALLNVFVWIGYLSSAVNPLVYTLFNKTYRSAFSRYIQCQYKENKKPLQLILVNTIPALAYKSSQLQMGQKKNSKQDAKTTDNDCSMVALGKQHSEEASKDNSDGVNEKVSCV
Chain of 5HT1a receptor (P08908 whole entry): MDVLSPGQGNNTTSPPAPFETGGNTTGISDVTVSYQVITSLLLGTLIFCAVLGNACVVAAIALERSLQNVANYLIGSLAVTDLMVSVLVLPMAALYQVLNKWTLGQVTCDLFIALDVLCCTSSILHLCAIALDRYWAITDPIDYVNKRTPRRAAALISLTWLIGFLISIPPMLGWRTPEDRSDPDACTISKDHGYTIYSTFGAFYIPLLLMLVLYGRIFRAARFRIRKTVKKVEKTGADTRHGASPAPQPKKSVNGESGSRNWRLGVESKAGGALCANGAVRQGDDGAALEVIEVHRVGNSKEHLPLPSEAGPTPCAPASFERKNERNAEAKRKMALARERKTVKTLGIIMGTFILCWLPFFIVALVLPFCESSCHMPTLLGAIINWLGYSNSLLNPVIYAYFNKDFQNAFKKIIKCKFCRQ
Chain of dopamine D4 receptor (P21917 whole entry, species assumed): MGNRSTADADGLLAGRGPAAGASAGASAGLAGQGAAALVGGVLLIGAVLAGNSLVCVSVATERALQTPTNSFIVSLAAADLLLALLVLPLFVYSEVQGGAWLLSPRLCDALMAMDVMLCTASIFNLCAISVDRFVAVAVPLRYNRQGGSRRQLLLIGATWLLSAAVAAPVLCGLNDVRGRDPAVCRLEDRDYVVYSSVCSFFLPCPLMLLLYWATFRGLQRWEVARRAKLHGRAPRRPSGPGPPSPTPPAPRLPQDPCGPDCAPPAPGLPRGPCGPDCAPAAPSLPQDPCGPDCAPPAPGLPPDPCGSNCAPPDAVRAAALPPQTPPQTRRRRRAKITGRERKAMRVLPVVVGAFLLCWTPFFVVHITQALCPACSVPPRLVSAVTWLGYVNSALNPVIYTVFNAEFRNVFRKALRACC

Row | Ki [1] | Ki [2] | Ki [3] | Ki [4] | Compound
1 | 1470 nM | 3780 nM | – | – | COc1cccc(OC[C@H]2CN(CCN3CCc4ccccc43)CCO2)c1 [Compound 25r, (R)-4-(2-(Indolin-1-yl)ethyl)-2-((3-methoxyphenoxy)methyl)morpholine]
2 | – | 374 nM | 3930 nM | 1110 nM | Fc1ccc(OC[C@@H]2CN(CCN3CCc4ccccc43)CCO2)cc1 [Compound 32s, (S)-2-((4-fluorophenoxy)methyl)-4-(2-(indolin-1-yl)ethyl)morpholine hydrochloride]
